Columns and labels:
Test in all cases: Cell proliferation assay, MTT, 5 days
Conditions in all cases: media containing 10% FBS
[1] = test system: Calu6 (human lung cancer); assay type: cell-based
Description: (§1) Melanoma B16 (murine), Calu 6 (human lung carcinoma), A549 (human lung carcinoma), LLC (murine Lewis Lung Carcinoma), NCI-H460 (human lung), MSTO-211H (human mesothelioma), MSTO-211H-Luc (luciferase transfected human mesothelioma), MCF7 (human breast), LMS05 (human sarcoma) were incubated (37° C., 5% CO2) with MEM (with 10% fetal bovine serum (FBS), 1% essential amino acids, and 1% Penicillin/Streptomyocin with L glutamine (Pen/Strep), F-12 HAM (with 10% FBS and 1% Pen/Strep), DMEM (with 10% FBS and 1% Pen/Strep) media, or DMEM (with 10% FBS and 1% GPS), with media changes once every three days. When not cultured, all cell lines were stored in RPMI freezing media at −80° C. (with 50% FBS, 40% RPMI and 10% dimethyl sulfoxide (DMSO)). Cell lines were trypsinized from the plates and seeded into 96 well plates at a concentration of 3000 cells per well. All cell lines were cultured for a period of at least seven days before being tested in cell uptake or proliferation assays etc.
(§2) Cell proliferation assays testing the effects of paclitaxel encapsulated within nanoparticles were performed using three tumor cell lines. Lewis Lung Carcinoma (LLC), Melanoma, and Calu6 (human lung cancer) cell lines were plated at 3,000 cells/well and when established, cultured in media with/without paclitaxel. […] At the end of 5 days, tumor cell proliferation was assessed via MTT analysis. […]

Melanoma = assay type: cell-based, murine
Description: as §1, §2

[2] = test system: Lewis Lung Carcinoma (LLC); assay type: cell-based, murine
Description: as §1, §2

Measured: concentration that reliably inhibits growth

CC(=O)O[C@H]1C(=O)[C@@]2(C)[C@H]([C@H](OC(=O)c3ccccc3)[C@]3(O)C[C@H](OC(=O)[C@H](O)[C@@H](NC(=O)c4ccccc4)c4ccccc4)C(C)=C1C3(C)C)[C@]1(OC(C)=O)CO[C@@H]1C[C@@H]2O [paclitaxel]
1 to 10 ng/mL: all assays above

From US10251841B2, “Polymeric depots for localization of agent to biological sites” (TRUSTEES OF BOSTON UNIVERSITY, priority 2011, dated 2019)
